# Reference: patent US20180042923A1, “COMBINATIONS COMPRISING BREXPIPRAZOLE OR A SALT THEREOF AND A SECOND DRUG FOR USE IN THE TREATMENT OF A CNS DISORDER” (priority 2011, published 2018)
# Columns and labels:
# male ddY mice = assay: Mouse marble-burying behavior test; assay type: in vivo; details: Compound (I) 0.1 mg/kg p.o., 30 min before test, n=10
# Excerpt: Marble-burying behavior test is a behavioral evaluation test utilizing the behavior of a mouse to bury marbles on the bedding. Since this characteristic behavior of burying harmless glass marbles in the bedding reflects the anxiety state of the animal, and is apparently similar to a compulsive act of obsessive-compulsive disorder patient, which is repeated with the recognition of irrationality, it is particularly considered a model of obsessive-compulsive disorder^1),2),3),4).
# As the animal, male ddY mice (6- to 7-week-old) were used. In the test, a plastic cage (26×32×17 cm) was filled with chips to about 5 cm deep in a soundproof room, and 25 marbles (diameter 15 mm, weight about 6 g) were placed thereon at equal distances. Each mouse was orally administered with Compound (I) simultaneously with an antianxiety drug or an antidepressant or a vehicle thereof, and 30 min later, each mouse was placed in a cage containing the marbles. 30 min later, the animal was taken out from the cage, and the number of marbles covered with chips by ⅔ or more was visually counted.
# Compound (I) (0.1 mg/kg) and various antidepressants (fluoxetine (10 mg/kg), paroxetine (10 mg/kg), sertraline (10 mg/kg), fluvoxamine (15 mg/kg)) were suspended in 5% gum arable-distilled water, and diazepam (antianxiety drug, 1 mg/kg) was diluted with physiological saline and used. All drugs and vehicles thereof were orally administered 30 min before the start of the test.
# ddY male mice = assay: Forced swimming test in mice (antidepressant action); assay type: in vivo
# Procedure: When an antidepressant is administered in advance, the immobility time is shortened. The shortened immobility time is used as an index of an antidepressant action to be evaluated. This test method is widely used as an experimental animal model reflecting the clinical antidepressant effect.
# In this test, the action of a combined use of 7-[4-(4-benzo[b]thiophen-4-yl-piperazin-1-yl)butoxy]-1H-quinolin-2-one (Compound (I)) and 9 kinds of antidepressants (serotonin reuptake inhibitors, or serotonin and norepinephrine reuptake inhibitors) on the immobility time was compared.
# As the animal, ddY male mice (5 to 6-week-old) were used. Various antidepressants and Compound (I) or each vehicle were administered to the mice before the start of the test, the mice were placed in a cylindrical water tank, and immobility time during 2 min to 4 min after the start of swimming was measured by a behavior analysis apparatus with an infrared sensor (SCANET; Melquest Co., Ltd.).
# Compound (I) was dissolved in 1% lactic acid-physiological saline, and various antidepressants were suspended or dissolved in 5% gum arabic-distilled water and used. Various antidepressants (fluoxetine (75 mg/kg), escitalopram (60 mg/kg), paroxetine (10 mg/kg), sertraline (15 mg/kg), venlafaxine (15 mg/kg), milnacipran (30 mg/kg), fluvoxamine (75 mg/kg)) were orally administered 60 min before the start of the test, duloxetine (20 mg/kg) and desvenlafaxine (20 mg/kg) were orally administered 30 min before the start of the test, and Compound (I) (0.001 or 0.003 mg/kg) was intraperitoneally administered 15 min before the start of the test.
# [1] = Compound (I) 0.003 mg/kg i.p. 15 min before test, desvenlafaxin 20 mg/kg p.o. 30 min before, n=8
# [2] = Compound (I) 0.003 mg/kg i.p. 15 min before test, milnacipran 30 mg/kg p.o. 60 min before, n=10
# [3] = Compound (I) 0.003 mg/kg i.p. 15 min before test, duloxetine 20 mg/kg p.o. 30 min before, n=7
# [4] = Compound (I) 0.003 mg/kg i.p. 15 min before test, fluvoxamine 75 mg/kg p.o. 60 min before, n=10
# [5] = Compound (I) 0.003 mg/kg i.p. 15 min before test, escitalopram 60 mg/kg p.o. 60 min before, n=10
# [6] = Compound (I) 0.001 mg/kg i.p. 15 min before test, venlafaxine 15 mg/kg p.o. 60 min before, n=10
# [7] = Compound (I) 0.003 mg/kg i.p. 15 min before test, sertraline 15 mg/kg p.o. 60 min before, n=7
# [8] = Compound (I) 0.003 mg/kg i.p. 15 min before test, fluoxetine 75 mg/kg p.o. 60 min before, n=10
# [9] = Compound (I) 0.003 mg/kg i.p. 15 min before test, paroxetine 10 mg/kg p.o. 60 min before, n=10
compound,measurement,setting,value
CN1C(=O)CN=C(c2ccccc2)c2cc(Cl)ccc21 [diazepam],number of marbles buried (average ± standard error),male ddY mice; diazepam 1 mg/kg p.o.,12.8 ± 2.0
same,number of marbles buried relative to control (%),male ddY mice; diazepam 1 mg/kg p.o.,85%
"CN(C)CC(c1ccc(O)cc1)C1(O)CCCCC1 (centres unmarked) [desvenlafaxin, desvenlafaxine]",immobility time relative to control (%),ddY male mice; [1],95%
CCN(CC)C(=O)C1(c2ccccc2)CC1CN (centres unmarked) [milnacipran],immobility time relative to control (%),ddY male mice; [2],97%
CNCC[C@H](Oc1cccc2ccccc12)c1cccs1 [duloxetine],immobility time relative to control (%),ddY male mice; [3],95%
COCCCC/C(=N\OCCN)c1ccc(C(F)(F)F)cc1 [fluvoxamine],immobility time relative to control (%),ddY male mice; [4],95%
same,number of marbles buried (average ± standard error),male ddY mice; fluvoxamine 15 mg/kg p.o.,13.5 ± 2.1
same,number of marbles buried relative to control (%),male ddY mice; fluvoxamine 15 mg/kg p.o.,83%
CN(C)CCC[C@@]1(c2ccc(F)cc2)OCc2cc(C#N)ccc21 [escitalopram],immobility time relative to control (%),ddY male mice; [5],95%
COc1ccc(C(CN(C)C)C2(O)CCCCC2)cc1 (centres unmarked) [venlafaxine],immobility time relative to control (%),ddY male mice; [6],96%
CN[C@H]1CC[C@@H](c2ccc(Cl)c(Cl)c2)c2ccccc21 [sertraline],immobility time relative to control (%),ddY male mice; [7],91%
same,number of marbles buried (average ± standard error),male ddY mice; sertraline 10 mg/kg p.o.,7.5 ± 0.7
same,number of marbles buried relative to control (%),male ddY mice; sertraline 10 mg/kg p.o.,56%
CNCCC(Oc1ccc(C(F)(F)F)cc1)c1ccccc1 (centres unmarked) [fluoxetine],immobility time relative to control (%),ddY male mice; [8],92%
same,number of marbles buried (average ± standard error),male ddY mice; fluoxetine 10 mg/kg p.o.,17.3 ± 1.5
same,number of marbles buried relative to control (%),male ddY mice; fluoxetine 10 mg/kg p.o.,98%
"O=c1ccc2ccc(OCCCCN3CCN(c4cccc5sccc45)CC3)cc2[nH]1 [Compound (I), 7-[4-(4-benzo[b]thiophen-4-yl-piperazin-1-yl)butoxy]-1H-quinolin-2-one]",immobility time relative to control (%),ddY male mice; [6],99%
same,immobility time relative to control (%),ddY male mice; [1],96%
same,immobility time relative to control (%),ddY male mice; [3],98%
same,immobility time relative to control (%),ddY male mice; [5],96%
same,immobility time relative to control (%),ddY male mice; [8],100%
same,immobility time relative to control (%),ddY male mice; [4],100%
same,immobility time relative to control (%),ddY male mice; [2],101%
same,immobility time relative to control (%),ddY male mice; [9],98%
same,immobility time relative to control (%),ddY male mice; [7],87%
same,number of marbles buried (average ± standard error),male ddY mice; diazepam 1 mg/kg p.o.,14.4 ± 2.0
same,number of marbles buried relative to control (%),male ddY mice; diazepam 1 mg/kg p.o.,96%
same,number of marbles buried (average ± standard error),male ddY mice; fluoxetine 10 mg/kg p.o.,14.4 ± 2.0
same,number of marbles buried relative to control (%),male ddY mice; fluoxetine 10 mg/kg p.o.,82%
same,number of marbles buried (average ± standard error),male ddY mice; fluvoxamine 15 mg/kg p.o.,14.0 ± 1.6
same,number of marbles buried relative to control (%),male ddY mice; fluvoxamine 15 mg/kg p.o.,86%
same,number of marbles buried (average ± standard error),male ddY mice; paroxetine 10 mg/kg p.o.,11.3 ± 1.5
same,number of marbles buried relative to control (%),male ddY mice; paroxetine 10 mg/kg p.o.,90%
same,number of marbles buried (average ± standard error),male ddY mice; sertraline 10 mg/kg p.o.,12.2 ± 2.2
same,number of marbles buried relative to control (%),male ddY mice; sertraline 10 mg/kg p.o.,91%
Fc1ccc([C@@H]2CCNC[C@H]2COc2ccc3c(c2)OCO3)cc1 [paroxetine],immobility time relative to control (%),ddY male mice; [9],98%
same,number of marbles buried (average ± standard error),male ddY mice; paroxetine 10 mg/kg p.o.,8.5 ± 2.0
same,number of marbles buried relative to control (%),male ddY mice; paroxetine 10 mg/kg p.o.,60%
